The values below come from ChEMBL document CHEMBL4706692, “CC-90009: A Cereblon E3 Ligase Modulating Drug That Promotes Selective Degradation of GSPT1 for the Treatment of Acute Myeloid Leukemia” (J Med Chem, 2021).

SMILES strings stand for the structures. pIC50: −log10 of the molar value.

For one assay, the system named is KG-1. Briefly: Antiproliferative activity against human KG-1 cells assessed as reduction in cell viability incubated for 72 hrs by cell titer glo assay. The settings on record: KG-1, 72 h. The format is functional, cell-based. In general terms: In ATP-based viability assays light output follows the ATP content of the culture.
Another assay relates to THLE-2. As to the kind of experiment: Cytotoxicity against human THLE-2 cells assessed as cell viability incubated for 72 hrs by cell titer glo assay. It counts as cell-based. The settings on record: THLE-2, 72 h.
Assay [1] can be described thus: Selectivity index, ratio of IC50 for cytotoxicity against human THLE-2 cells to IC50 for antiproliferative activity against human KG-1 cells.

For orientation: pIC50 means −log10 of the IC50, conventionally taken in molar units. With `O=C1CCC(N2Cc3cc(CNC(=O)c4ccccc4)ccc3C2=O)C(=O)N1` (stereo not given), the pIC50 with KG-1 and with THLE-2 was < 5.00 throughout.

On to `CC(C)(C(=O)NCc1ccc2c(c1)CN(C1CCC(=O)NC1=O)C2=O)c1ccccc1` (stereo not given), for which the pIC50 in the assay on KG-1 and in the assay with THLE-2 was < 5.00 in each case.

`O=C(Cc1ccccc1)NCc1ccc2c(c1)CN(C1CCC(=O)NC1=O)C2=O` (stereo not given): the “Ratio IC50” value in assay [1] amounted to 6. In addition, the pIC50 is 7.43 with KG-1 and 6.64 with THLE-2.

With `O=C1CCC(N2Cc3cc(CNC(=O)C(F)(F)c4ccccc4)ccc3C2=O)C(=O)N1` (stereo not given), the “Ratio IC50” value in assay [1] is reported as >100. The pIC50 is 7.01 in the assay on KG-1 and < 5.00 in the assay with THLE-2.
